Results on one substance are retold here after US20260286322A1, “PROTEIN TYROSINE P[…] DOMAIN PEPTIDE DIMER FOR NERVOUS SYSTEM REPAIR” (NervGen Pharma Corp., priority 2023, published 2026).

Assay [1] concerns animal model of spinal cord injury (SCI rats). Put plainly: Recovery of occasional and frequent walking, inverse Kaplan-Meier on BBB thresholds. Format: in vivo, rat. How it is done:
Adult, female Lewis rats (~160 g on arrival) from Envigo were used as the subjects receiving the treatment in the study. The rats were assigned unique identification numbers (PGI ID and tail marks) and housed in ventilated cages. All rats were examined, handled, and weighed prior to initiation of the study to assure adequate health and suitability. During the course of the study, 12/12 light/dark cycles were maintained. The room temperature was maintained between […] and 23° C. with a relative humidity maintained around 50%. Chow and water were provided adlibitum for the duration of the study. The rats were randomly assigned across treatment groups. Body weights were taken twice a week during the study.
Spinal cord injury (SCI) was introduced to the animals and post-operative care was followed after the injury according to the methods described in Example 3.
(§1) Lyophilized Compound 8 was dissolved in saline and injected s.c. at a volume of 500 μl to animal once daily from day 1-day 49 post spinal cord injury.
The target dose concentration was 0.8 mg/ml. After reconstitutions, the solution was aliquoted and kept at −20° C. until dosing.
12-13 rats were used in each of the following two groups: • 1) Control group: SCI+Saline • 2) Testing group: SCI+Compound 8 in Saline.
Inverse Kaplan-Meier graphs were generated based on the Basso, Beattie & Bresnaham (BBB) open field locomotor assessment described above in Example 3. […]
Recover occasional walking: Occasional walking is defined as less than or equal to half of the attempted steps are successful, corresponding to a BBB score of 10. The week post-SCI in which an animal achieved a 10 or above was recorded and plotted on the Kaplan Meier graph, as defined above.
Recover frequent walking: Frequent walking is defined as greater than half of the attempted steps are successful and corresponds to a BBB score of 11. The week post-SCI in which an animal achieved an 11 or above was recorded and plotted on the Kaplan Meier graph, as defined above.
Statistical methods: Kaplan Meier curves were analyzed using the log-rank test. Effects of Compound 4 and Compound 8 on the locomotor function and bladder function were assessed for statistical significance by repeated measures ANOVA (RM-ANOVA) with Geisser-Greenhouse correction for non-sphericity of data and Tukey correction for multiple comparisons or by nonparametric Friedman's test with Dunn's multiple comparison correction. The choice of RM ANOVA or Friedman's test for the analysis of each type of data (BBB scores, BBB subscores, and bladder scores) was determined by the normality of data distribution tests performed for each of the functional scores across all treatment cohorts. […]

For assay [2], the system named is rat model of thoracic traumatic Spinal Cord Injury (SCI). Put plainly: Bladder function, bladder score and urinary complications in SCI rats. In kind it is in vivo. How it is done:
as §1
The dose concentration was 0.8 mg/ml, corresponding to 400 μg/rat. After reconstitutions, the solution was aliquoted and kept at −20° C. until dosing.
Spinal cord injury (SCI) was introduced to the rats by surgery using the Infinite Horizon (IH) Impactor (200 kDyn force) described by Scheff et al. 2003. The surgery was performed with aseptic procedures in a designated area under deep anesthesia. Rats were anesthetized with isoflurane (4% for induction, 2% for maintenance), and O2 (300 cm^3/min) mixture. Hair was removed from the surgical site with clippers and the skin wase scrubbed with an antiseptic detergent. To maintain body temperature the animals were placed upon a homoeothermic blanket system. The T8 Vertebra of the rat was located externally, and an incision was made exposing the vertebral column from T6-T11. A laminectomy was performed using a surgical microscope to expose the dorsal spinal cord at the thoracic (T8) vertebral level. The vertebral column was stabilized by clamping the nearest rostral and caudal vertebral processes and the injury was produced using the IH impactor device at a 200 kDyn force. After each lesion the IH graphs and impact data were reviewed and recorded, rats presenting an impact force more than 10% higher or lower than expected and/or any abnormality on the force/displacement impact graphs were excluded from the study. Additionally, animals scoring more than 1 points in the Basso, Beattie and Bresnahan (BBB) score scale at 1 days after SCI were excluded for the study as well.
Starting the day after lesion animals were observed twice a day and bladders were manually expressed using gentle abdominal pressure. Any abnormal appearance of the urine (i.e. cloudy urine, bloody urine) was recorded, and the size of the bladder estimated by trained researchers in order to obtain a categorical score (bladder score) (empty bladders=0; extra-small bladders=1; small bladders=2, medium bladders=3, large bladders=4). Urinary complications (bloody urine, foul-smelling urine, urine-stained fur) were reported and treated with SC fluids twice a day, and antibiotic treatment if the issues persisted. Bladder expression continue until spontaneous voiding was observed (empty bladder for 3 consecutive days).
During bladder expressions the size of each bladder was estimated by trained researchers and a semi-quantitative score was obtained. Daily estimates of urine retention were obtained by adding the bladder size scores of AM and PM bladder expressions. FIG. 5 illustrates the weekly average of urine retention in the rats in the testing group that were treated with Compound 8 in saline, compared to the rats in control group that were treated with vehicle control (saline).
Urinary complications including bloody urine, foul-smelling urine, and urine-stained fur were monitored. When a new complication was observed after resolutions of a previous event, it was considered repetitive. Animals would be euthanized if the complications persisted after an additional cycle of antibiotics, when bladders could not be expressed or when general health deterioration was observed.
Urinary complications, such as repetitive bloody urine, urine-stained fur and urinary infections were observed, recorded, and treated, as needed.
In this study, the effects of Compound 8 in improving the recovery of open field locomotor performance and bladder function in the SCI rats were further evaluated in comparison with Compound 4 by assessing the BBB scores and bladder scores according to the methods described in Example 3.
In this assessment, 12-13 rats were included in each of the following groups (1) Control group 1: SCI+saline alone; (2) Control group 2: SCI+Compound 4 in saline; (3) Testing group: SCI+Compound 8. […]

As to “TAT-Cys-rodent PTPRS wedge domain homodimer [Compound 8]”, the “time at which recovery of frequent walking was first detected” value in assay [1] (post injury) is recorded as “after three weeks post injury”. Moreover, the “time at which recovery of occasional walking reached 50%” value in assay [1] (post-SCI) was “less than 6 week”. Besides, the “recovery of frequent walking (BBB score of 11 or above), accumulated percent of group” value in assay [1] (week 12 post-SCI) is roughly 50%. In assay [1] (week 12 post-SCI, 0.8 mg/ml, 500 μl s.c. once daily day 1-49), the “recovery of occasional walking (BBB score of 10 or above), accumulated percent of group” value was roughly 80%. Also, in assay [2] (RM ANOVA, Tukey, p=0.0001 vs saline, p=0.0085 vs Compound 4), the “average weekly bladder scores compared with Compound 4 or saline alone” value is given as “significantly lower”. For the same substance, in assay [2] (during the course of the study), the “Euthanasia due to Urinary Complications” value was “none”, the “Repetitive Urinary Complications (animals)” value is recorded as 1 out of 13, the “Repetitive Urinary Complications (percentage)” value amounted to 8% and the “Urinary Complications (animals)” value was 4 out of 13. In assay [2] (during the course of the study), the “Urinary Complications (percentage)” value came to 31%. The “percentage of rats with bladder scores of 2 or better” value in assay [2] (during weeks 10 to 13) is recorded as “more than 40%”. In addition, the “estimated size of bladders” value in assay [2] (evident from week 8 to 13) is “decrease in the estimated size of bladders”. For the same substance, in assay [2] (starting on week 6 post-SCI), the “percentage of rats with bladder scores of 2 or better” value is on record as “About 25%”. Also, the “frequency of urinary complications compared with vehicle control” value in assay [2] (vs rats receiving vehicle control) was “less frequent”. Further, in assay [2] (vs vehicle control, trend noticeable starting at week 4 after SCI), the “urine retention (weekly average of estimated bladder size scores)” value is “less urine retention”.
